From PMC4148174 (Biochemical Journal, 2014)
Where two headings read alike, the source gives them in different places.

What was measured:
[1] = tested on: T1, isolated F1 domain of ATPase; assay: ATP hydrolysis by the isolated F1 domain; assay type: biochemical, bovine; details: at the SMP IC50 values
T1 construct: from tissue; host or cells: bovine mitochondria
Procedure: Complex I was prepared from Bos taurus (bovine) heart mitochondria, Pichia pastoris and Escherichia coli, as described previously. SMPs (submitochondrial particles) and mitochondrial membranes were prepared from bovine heart mitochondria. […] Mitochondria were isolated from rat liver by the method of Chappell and Hansford. F1FO-ATP synthase and the F1 domain were isolated from bovine mitochondria as described previously using a HiLoad Superdex 200-PG column and omitting azide and 2-mercaptoethanol.

ATP synthase = tested on: T2, ATP synthase; assay: Succinate-driven ATP synthesis by SMPs; assay type: biochemical, bovine; details: 15 mM buformin, 100 mM metformin; others up to concentrations above IC50 for ATP hydrolysis; corrected for succinate oxidation
T2 construct: from tissue; host or cells: SMPs from bovine heart mitochondria
Excerpt: Data points are means±S.E.M., n=3, as a percentage of ATP production in the absence of biguanide. […] (●).

[2] = tested on: Hep G2 hepatocarcinoma cells; assay: Rotenone-sensitive OCR and ECAR of Hep G2 cells (Seahorse); assay type: cell-based, human; details: for effect on rotenone-sensitive OCR or ECAR: concentration equal to complex I IC50/10, 6 h of treatment; for IC50: Hep G2 cells, 6 h exposure, read-out: cellular IC50, rotenone-sensitive OCR
Procedure: OCRs (oxygen consumption rates) and ECARs (extracellular acidification rates) were measured in a Seahorse extracellular flux analyser; 200 nM rotenone was used to inhibit complex I where stated. To calculate the normalized rotenone-sensitive OCR rates, the rotenone-insensitive rates (determined at the end of the experiment) were subtracted and the traces normalized to 100% before biguanide addition. ECAR data were normalized to 100% before biguanide addition. […] Isolated rat liver mitochondria were plated at 20 μg per well in the same buffer but without PMP. They were adhered to the plate by centrifugation at 2000 g for 20 min at 4°C and measurements performed and normalized (after temperature equilibration) as for permeabilized cells but at 32°C.
(§1) Biguanides are positively charged so they are expected to accumulate in the mitochondria of cells in response to the potential difference across the inner membrane (the potential difference is the ‘charge’ component of the protonmotive force). Each 60 mV of potential difference drives the concentration of the positive ion to 10-times higher inside the mitochondrion than outside. For a typical potential difference of 120–150 mV the concentration inside the mitochondrion could therefore be 100 to 300-times higher than outside. […] The OCRs were normalized to their values before biguanide addition, and monitored throughout the experiment; rotenone-insensitive rates were subtracted, and all rates after 6 h compared with a biguanide-free control.

complex III = assay: Complex III inhibition (succinate:cytochrome c oxidoreduction); details: read-out: IC50 on complex III
[3] = molecular target: T3, complex I (NADH:ubiquinone oxidoreductase); assay: NADH:decylubiquinone oxidoreduction by isolated complex I; assay type: biochemical, Bos taurus (bovine); details: for IC50: isolated bovine complex I, 32°C, pH 7.2, 200 μM NADH, 200 μM decylubiquinone, 95% confidence intervals; for inhibition of complex I catalysis at extrapolated mitochondrial concentration: 10 mM metformin, 200 μM phenformin in mitochondria
T3 construct: from tissue; host or cells: bovine heart mitochondria
Procedure: Catalysis was initiated by the addition of NADH, following a 2 min pre-incubation, and rates measured as the linear regression of the maximal rate (discarding any initial lag phases). […] Control experiments included NaCl (to maintain the ionic strength) or DMSO.
Experimental values are reported as means±S.E.M. for small sample sizes or as means±S.D. for large sample sizes with only technical error sources. […] Comparisons between samples are marked *P<0.05, **P<0.01 and ****P<0.0001 as determined using an unpaired two-tailed Students t test. Differences between measurements with P>0.05 were considered not significant.

complex I flavin = tested on: T4, complex I flavin; assay: H2O2 production (NADH:O2 oxidoreduction) by isolated complex I; assay type: biochemical, bovine; details: dose-response
T4 construct: from tissue; host or cells: bovine heart mitochondria (from context)
Procedure: (§2) NADH:decylubiquinone oxidoreduction was measured using 200 μM NADH and 200 μM decylubiquinone, in 0.075% soya bean asolectin (Avanti Polar Lipids) and 0.075% CHAPS (Merck Chemicals) and quantified by the absorbance of NADH (ε340–380=4.81 mM^−1·cm^−1). Catalysis was initiated by the addition of NADH, following a 2 min pre-incubation, and rates measured as the linear regression of the maximal rate (discarding any initial lag phases). […] Initial rates for the NADH:FeCN (ferricyanide), NADH:HAR [hexaammineruthenium(III)] and NADH:paraquat reactions were measured in 100 μM NADH with 1 mM FeCN (ε420–500=1 mM^−1·cm^−1), 3.5 mM HAR or 200 μM paraquat (ε340–380=4.81 mM^−1·cm^−1). H2O2 formation was followed in 30 μM NADH as the catalase-sensitive horseradish peroxidase-dependent oxidation of 10 μM Amplex Red to resorufin (ε557–620=51.6 mM^−1·cm^−1), with 2 units/ml superoxide dismutase, or by monitoring NADH oxidation. Metformin (Cambridge Bioscience) phenformin and buformin (Santa Cruz Biotechnology) were added from aqueous stock solutions, and cycloguanil (Santa Cruz Biotechnology) and proguanil (Sigma–Aldrich) were in DMSO. Control experiments included NaCl (to maintain the ionic strength) or DMSO.

complex I [4] = assay: NADH:decylubiquinone oxidoreduction by isolated complex I from yeast; assay type: biochemical, Pichia pastoris; details: complex I from the yeast P. pastoris; read-out: IC50, inhibition of complex I
Procedure: (§3) Complex I was prepared from Bos taurus (bovine) heart mitochondria, Pichia pastoris and Escherichia coli, as described previously. SMPs (submitochondrial particles) and mitochondrial membranes were prepared from bovine heart mitochondria. Complex IV was a by-product from the preparation of complex I; it elutes from the Q-Sepharose column at ~250 mM NaCl. Mitochondria were isolated from rat liver by the method of Chappell and Hansford. F1FO-ATP synthase and the F1 domain were isolated from bovine mitochondria as described previously using a HiLoad Superdex 200-PG column and omitting azide and 2-mercaptoethanol.
(§4) NADH:decylubiquinone oxidoreduction was measured using 200 μM NADH and 200 μM decylubiquinone, in 0.075% soya bean asolectin (Avanti Polar Lipids) and 0.075% CHAPS (Merck Chemicals) and quantified by the absorbance of NADH (ε340–380=4.81 mM^−1·cm^−1). Catalysis was initiated by the addition of NADH, following a 2 min pre-incubation, and rates measured as the linear regression of the maximal rate (discarding any initial lag phases). […] Initial rates for the NADH:FeCN (ferricyanide), NADH:HAR [hexaammineruthenium(III)] and NADH:paraquat reactions were measured in 100 μM NADH with 1 mM FeCN (ε420–500=1 mM^−1·cm^−1), 3.5 mM HAR or 200 μM paraquat (ε340–380=4.81 mM^−1·cm^−1). […]

complex I [5] = assay: NADH:decylubiquinone oxidoreduction by isolated complex I from bacterium; assay type: biochemical, Escherichia coli; details: read-out: IC50, inhibition of complex I; complex I from the bacterium E. coli
Procedure: as §3, §4

complex I [6] = assay: NADH:FeCN oxidoreduction by complex I from P. pastoris; assay type: biochemical, Pichia pastoris; details: 200 mM metformin
Procedure: as §2

complex I [7] = assay: NADH:FeCN oxidoreduction by complex I from E. coli; assay type: biochemical, Escherichia coli; details: 200 mM metformin
Procedure: as §2

complex I flavin site = tested on: T5, complex I flavin site; assay: NADH-dependence of NADH:FeCN catalysis by isolated bovine complex I; assay type: biochemical; details: 100 mM metformin
T5 construct: from tissue; host or cells: bovine heart mitochondria

[8] = tested on: isolated rat skeletal muscle mitochondria; assay: H2O2 production by isolated rat skeletal muscle mitochondria (resorufin fluorescence); details: glutamate and pyruvate, ATP and rotenone
Excerpt: . However, these extramitochondrial concentrations are very high and we are unable to control the intramitochondrial concentration or conditions, so the results are not quantitatively meaningful. […]

complex I in SMPs = tested on: T6, complex I in SMPs; assay: NADH oxidation by SMPs; assay type: biochemical, bovine; details: 100 mM metformin added 10 min after initiation by 200 μM NADH
T6 construct: from tissue; host or cells: SMPs from bovine heart mitochondria

143B osteosarcoma cells = assay: Rotenone-sensitive OCR of 143B cells (Seahorse); assay type: cell-based, human; details: 6 h exposure, read-out: cellular IC50, rotenone-sensitive OCR
Procedure: Cells [143B (cell line 8303 from the A.T.C.C.) and Hep G2 (cell line 85011430 from The Health Protection Agency)] were grown on DMEM (Dulbecco's modified Eagle's medium) supplemented with 10% FBS (Thermo Fisher Scientific) and 100 units/ml penicillin and 100 μg/ml streptomycin at 37°C in 5% CO2. Per well, 3×10^4 or 1.5×10^4 cells were plated into XF24 or XF96 (Seahorse Bioscience) plates respectively, and incubated for 12 h at 37°C in 5% CO2. The medium was exchanged for assay buffer containing DMEM, 4.5 g/l glucose, 1 mM pyruvate, 32 mM NaCl, 2 mM GlutaMAX, 15 mg/l Phenol Red and 20 mM Hepes (pH 7.4) and the cells placed in a CO2-free incubator at 37°C for 60 min. OCRs (oxygen consumption rates) and ECARs (extracellular acidification rates) were measured in a Seahorse extracellular flux analyser; 200 nM rotenone was used to inhibit complex I where stated. To calculate the normalized rotenone-sensitive OCR rates, the rotenone-insensitive rates (determined at the end of the experiment) were subtracted and the traces normalized to 100% before biguanide addition. ECAR data were normalized to 100% before biguanide addition. For the permeabilized cell experiments, cells were seeded at 3.5×10^3 per well and incubated for 62 h at 37°C in 5% CO2. The medium was exchanged for assay buffer containing 3 nM plasma membrane permeabilizer ‘PMP’ (Seahorse Biosciences), 10 mM pyruvate, 10 mM malate, 220 mM mannitol, 70 mM sucrose, 10 mM KH2PO4, 5 mM MgCl, 1 mM EGTA, 0.2% fatty-acid-free BSA and 2 mM Hepes (pH 7.4) at 37°C. Cells were incubated for 15 min and a baseline was recorded for normalization, then the test compounds were added. […]
Biguanides are positively charged so they are expected to accumulate in the mitochondria of cells in response to the potential difference across the inner membrane (the potential difference is the ‘charge’ component of the protonmotive force). […] The OCRs were normalized to their values before biguanide addition, and monitored throughout the experiment; rotenone-insensitive rates were subtracted, and all rates after 6 h compared with a biguanide-free control. […]

[9] = Typical blood serum levels; assay type: in vivo; details: 1000-fold accumulation at combined membrane potentials of 180 mV
[10] = tested on: immunoprecipitated complex I; design: method as in PMID 18817800; details: previous data; cited from earlier work
[11] = design: method as in PMID 12889529; details: cited from earlier work
143B and Hep G2 cells = assay: Accumulation into mitochondria of cultured cells inferred from complex I inhibition; assay type: cell-based, human; details: 6 h
Excerpt: as §1, with “control. […]. […] […].” for “control.”

F1FO-ATPase = molecular target: T7, F1FO-ATPase; assay: ATP hydrolysis by F1FO-ATPase in SMPs (coupled assay); assay type: biochemical; details: bovine SMPs
T7 construct: from tissue; host or cells: SMPs from bovine heart mitochondria

[12] = molecular target: T8, isolated ATPase (F1FO-ATP synthase); assay: ATP hydrolysis by isolated intact ATPase; assay type: biochemical, bovine; details: isolated intact enzyme
T8 construct: from tissue; host or cells: bovine mitochondria
Procedure: as §3

Row | Structure (SMILES) | inhibition of ATP hydrolysis by the isolated F1 domain [1] | effect on succinate-driven ATP synthesis (ATP synthase) | effect on rotenone-sensitive OCR or ECAR [2] | IC50 [3] [mM] | H2O2 production rate maximum (complex I flavin) [%] | inhibition of complex I catalysis at extrapolated mitochondrial concentration [3] | IC50 (143B osteosarcoma cells; Homo sapiens, 143B, 6 h) [µM] | mitochondrial concentration extrapolated from serum [9] [mM] | serum concentration [11] | other results
1 | CCCCNC(=N)NC(=N)N [buformin] | 74±3% | No inhibition | – | – | – | – | – | – | – | –
2 | CC1(C)N=C(N)N=C(N)N1c1ccc(Cl)cc1 [cycloguanil] | no significant inhibition | neither cycloguanil or proguanil affect ATP synthesis | neither proguanil nor cycloguanil exhibited any substantial effect | – | – | – | – | – | – | IC50 (complex III): 2.48 ± 0.21 mM
3 | N=C(N)N [guanidinium] | – | – | – | 25.8 ± 3.9 | 386±34 | – | – | – | – | –
4 | CN(C)C(=N)N=C(N)N [metformin] | – | No inhibition | – | 19.4 ± 1.4 | 338±41 | ~ 25% | 237 ± 13 | 10 | ~ 10 μM | mode of inhibition of complex I ([3]; Michaelis-Menten analysis towards decylubiquinone): reversible non-competitive inhibitor; IC50 (complex I [4]): 22.6 ± 4.3 mM; IC50 (complex I [5]): 60.7 ± 8.5 mM; NADH:FeCN reaction rate (stimulation) (complex I [6]): 166±1%; NADH:FeCN reaction rate (stimulation) (complex I [7]): 144±2%; increase of the dissociation constant for NADH to the reduced flavin (complex I flavin site): ~ 20 times; KNADHRed (dissociation constant for NADH binding to the reduced flavin) (complex I flavin site; control 11 μM, data fit): 181 µM; stimulation of H2O2 production rate ([8]; 50 mM metformin): 270±34%; stimulation of H2O2 production rate ([8]; 100 mM metformin): 360±35%; time for inhibition to attain the same level when added during catalysis (complex I in SMPs): more than 30 min; IC50 (143B osteosarcoma cells): 240 ± 10 µM; IC50 [2]: 330 ± 20 µM; IC50 ([2]; Homo sapiens, HepG2, 6 h): 325 ± 25 µM; IC50 [10]: 66 mM
5 | [H]/N=C(/N)N/C(=N/[H])NCCc1ccccc1 [phenformin] | 32±7.5% | inhibition of synthesis is observed at higher concentrations | – | – | – | ~ 25% | 3.81 ± 1.12 | 0.2 | ~ 200 nM | IC50 ([2]; Homo sapiens, HepG2): 3.8 ± 0.38 µM; time for uptake to reach completion ([2]; concentration equal to complex I IC50/10 (0.04 mM phenformin)): approximately 6 h; accumulation (isolated complex I IC50 versus cellular IC50) (143B and Hep G2 cells): 120 fold
6 | [H]/N=C(\N/C(=N/[H])Nc1ccc(Cl)cc1)NC(C)C [proguanil] | no significant inhibition | neither cycloguanil or proguanil affect ATP synthesis | neither proguanil nor cycloguanil exhibited any substantial effect | – | – | – | – | – | – | IC50 (F1FO-ATPase): 6.8 ± 0.7 µM; IC50 [12]: 670 ± 100 nM
